According to patent US12570687B2, “Triterpenoid compounds, pharmaceutical compositions thereof, and their use for treating a nuclear receptor subfamily 4 group a member 1-mediated disease” (NUCMITO PHARMACEUTICALS COMPANY LIMITED, priority 2019, dated 2026):

Columns and labels:
Format in all cases: cell-based
[1] = system: A375 (malignant melanoma); assay: MTT antiproliferative assay, A375; conditions: Homo sapiens, A-375, A375, 10 μM, 48 or 72 h, read-out: inhibition of cell growth, A375
Procedure: (§1) The antiproliferative activity of a test compound was determined in cell lines: MDA-MB-231 (breast cancer), HepG2 (liver cancer), SW620 (colon cancer), A375 (malignant melanoma), A431 (epidermoid carcinoma), A549 (lung adenocarcinoma), and HeLa ([…]). MDA-MB-231, HepG2, SW480, SW620, A375, and A431 cells were cultured in Dulbecco's modified Eagle's medium (DMEM) containing 10% fetal bovine serum (FBS). HeLa cells were cultured in MEM/EBSS (MEM) containing 10% FBS. A549 cells were maintained in Kaighn's modification of Ham's F-12 medium containing 10% FBS. The colorimetric MTT (3-(4,5-dimethylthiazol-2-yl)-2,5-diphenyltetrazolium bromide) assay was used to measure the cell viability of different cells following treatment with the test compound.
(§2) Briefly cells were seeded in a 96 well plate at a density of 2,000-5,000 cells/well. Following attachment, the cells were treated with the test compound in media at various concentrations ranging from 0.137 to 100 μM or at a single concentration of 10 μM. After the cells were incubated at 37° C. for 48 or 72 h, MTT (20 μL, 5 mg/mL in PBS) was added to each well and the cells were incubated for another 4 h at 37° C. The supernatant was removed carefully and 150 μL of DMSO was added to each well to dissolve the MTT formazan crystals. The plate was shaken for 15-20 min and the absorbance value of each well was determined using a multi-well plate reader at 490 nm. The wells treated with DMSO were taken as a vehicle control. Data were also obtained similarly for all the replicates and the percentage viability was determined with respect to the DMSO-treated cells. The results are summarized in Table 1 below, wherein A represents no less than 80% inhibition of cell growth at 10 μM; B represents no less than 50% but less than 80% inhibition of cell growth at 10 μM; C represents no less than 30% but less than 50% inhibition of cell growth at 10 μM; and D represents less than 30% inhibition of cell growth at 10 μM.

[2] = system: A549 (lung adenocarcinoma); assay: MTT antiproliferative assay, A549; conditions: Homo sapiens, A549, 10 μM, 48 or 72 h, read-out: inhibition of cell growth, A549
Procedure: as §1, §2

[3] = system: MDA-MB-231 (breast cancer); assay: MTT antiproliferative assay, MDA-MB-231; conditions: Homo sapiens, MDA-MB-231, 10 μM, 48 or 72 h, read-out: inhibition of cell growth, MDA-MB-231
Procedure: as §1, §2

SW620 (colon cancer) = assay: MTT antiproliferative assay, SW620; conditions: Homo sapiens, SW-620, SW620, 10 μM, 48 or 72 h, read-out: inhibition of cell growth, SW620
Procedure: as §1, §2

[4] = system: A431 (epidermoid carcinoma); assay: MTT antiproliferative assay, A431; conditions: Homo sapiens, A-431, A431, 10 μM, 48 or 72 h, read-out: inhibition of cell growth, A431
Procedure: as §1, §2

HeLa (ovarian cancer) = assay: MTT antiproliferative assay, HeLa; conditions: Homo sapiens, 48 or 72 h, read-out: inhibition of cell growth, HELA
Procedure: as §1, §2

HepG2 (liver cancer) = assay: MTT antiproliferative assay, HepG2; conditions: Homo sapiens, HepG2, 10 μM, 48 or 72 h, read-out: inhibition of cell growth, HepG2
Procedure: as §1, §2

SMILES	inhibition at 10 µM [1] [%]	inhibition at 10 µM [2] [%]	inhibition at 10 µM [3] [%]	inhibition at 10 µM (SW620 (colon cancer)) [%]	inhibition at 10 µM [4] [%]	inhibition at 10 µM (HeLa (ovarian cancer)) [%]	inhibition at 10 µM (HepG2 (liver cancer)) [%]
COC1(C)C2=CC=C3[C@@](C)(CC[C@@]4(C)[C@@H]5C[C@](C)(C(=O)O)CC[C@]5(C)CC[C@]34C)C2=CC(=O)C1CC#N (stereo in doubt) [Compound A38, (2R,4aS,6aS,9S,12bR,14aS,14bR)-10-(cyanomethyl)-9-methoxy-2,4a,6a,9,12b,14a-hexamethyl-11-oxo-1,2,3,4,4a,5,6,6a,9,10,11,12b,13,14,14a,14b-hexadecahydropicene-2-carboxylic acid]	30 to 50	< 30	30 to 50	50 to 80	30 to 50	≥ 80	< 30
[2H]C([2H])([2H])O[C@]1(C)C(=O)C(=O)C=C2C1=CC=C1[C@@]2(C)CC[C@@]2(C)[C@@H]3C[C@](C)(C(=O)O)CC[C@]3(C)CC[C@]12C [Compound A2, (2R,4aS,6aS,9S,12bR,14aS,14bR)-9-(methoxy-d3)-2,4a,6a,9,12b,14a-hexamethyl-10,11-dioxo-1,2,3,4,4a,5,6,6a,9,10,11,12b,13,14,14a,14b-hexadecahydropicene-2-carboxylic acid]	30 to 50	30 to 50	50 to 80	30 to 50	50 to 80	≥ 80	50 to 80
CC(=O)OC1(C)C(=O)C(=O)C=C2C1=CC=C1[C@@]2(C)CC[C@@]2(C)[C@@H]3C[C@](C)(C(=O)O)CC[C@]3(C)CC[C@]12C (stereo partly drawn) [Compound A3, (2R,4aS,6aS,12bR,14aS,14bR)-9-(acetyloxy)-2,4a,6a,9,12b,14a-hexamethyl-10,11-dioxo-1,2,3,4,4a,5,6,6a,9,10,11,12b,13,14,14a,14b-hexadecahydropicene-2-carboxylic acid]	< 30	50 to 80	< 30	< 30	≥ 80	50 to 80	< 30
COC(=O)[C@]1(C)CC[C@]2(C)CC[C@]3(C)C4=CC=C5C(=CC(=O)C(=O)C5(C)c5c[nH]c6ccccc56)[C@]4(C)CC[C@@]3(C)[C@@H]2C1 (stereo partly drawn) [Compound A4, methyl (2R,4aS,6aS,12bR,14aS,14bR)-9-(1H-indol-3-yl)-2,4a,6a,9,12b,14a-hexamethyl-10,11-dioxo-1,2,3,4,4a,5,6,6a,9,10,11,12b,13,14,14a,14b-hexadecahydropicene-2-carboxylate]	50 to 80	50 to 80	30 to 50	50 to 80	≥ 80	≥ 80	50 to 80
COC(=O)[C@]1(C)CC[C@]2(C)CC[C@]3(C)C4=CC=C5C(=CC(=O)C(=O)[C@@]5(C)OC)[C@]4(C)CC[C@@]3(C)[C@@H]2C1 [Compound A5, methyl (2R,4aS,6aS,9S,12bR,14aS,14bR)-9-methoxy-2,4a,6a,9,12b,14a-hexamethyl-10,11-dioxo-1,2,3,4,4a,5,6,6a,9,10,11,12b,13,14,14a,14b-hexadecahydropicene-2-carboxylate]	50 to 80	30 to 50	≥ 80	50 to 80	≥ 80	≥ 80	≥ 80
CO[C@]1(C)C(=O)C(=O)C=C2C1=CC=C1[C@@]2(C)CC[C@@]2(C)[C@@H]3C[C@](C)(C(=O)On4nnc5ccccc54)CC[C@]3(C)CC[C@]12C [Compound A6, 1H-1,2,3-benzotriazol-1-yl (2R,4aS,6aS,9S,12bR,14aS,14bR)-9-methoxy-2,4a,6a,9,12b,14a-hexamethyl-10,11-dioxo-1,2,3,4,4a,5,6,6a,9,10,11,12b,13,14,14a,14b-hexadecahydropicene-2-carboxylate]	30 to 50	50 to 80	50 to 80	50 to 80	50 to 80	≥ 80	≥ 80
CO[C@]1(C)C(=O)C(=O)C=C2C1=CC=C1[C@@]2(C)CC[C@@]2(C)[C@@H]3C[C@](C)(C(=O)F)CC[C@]3(C)CC[C@]12C [Compound A8, (2R,4aS,6aS,9S,12bR,14aS,14bR)-9-methoxy-2,4a,6a,9,12b,14a-hexamethyl-10,11-dioxo-1,2,3,4,4a,5,6,6a,9,10,11,12b,13,14,14a,14b-hexadecahydropicene-2-carbonyl fluoride]	30 to 50	50 to 80	50 to 80	50 to 80	≥ 80	50 to 80	≥ 80
CCNC(=O)[C@]1(C)CC[C@]2(C)CC[C@]3(C)C4=CC=C5C(=CC(=O)C(=O)[C@@]5(C)OC)[C@]4(C)CC[C@@]3(C)[C@@H]2C1 [Compound A10, (2R,4aS,6aS,9S,12bR,14aS,14bR)—N-ethyl-9-methoxy-2,4a,6a,9,12b,14a-hexamethyl-10,11-dioxo-1,2,3,4,4a,5,6,6a,9,10,11,12b,13,14,14a,14b-hexadecahydropicene-2-carboxamide]	30 to 50	30 to 50	≥ 80	50 to 80	50 to 80	≥ 80	50 to 80
CO[C@]1(C)C(=O)C(=O)C=C2C1=CC=C1[C@@]2(C)CC[C@@]2(C)[C@@H]3C[C@](C)(C(=O)OCc4ccccc4)CC[C@]3(C)CC[C@]12C [Compound A11, benzyl (2R,4aS,6aS,9S,12bR,14aS,14bR)-9-methoxy-2,4a,6a,9,12b,14a-hexamethyl-10,11-dioxo-1,2,3,4,4a,5,6,6a,9,10,11,12b,13,14,14a,14b-hexadecahydropicene-2-carboxylate]	50 to 80	< 30	≥ 80	≥ 80	< 30	≥ 80	≥ 80
CCCNC(=O)[C@]1(C)CC[C@]2(C)CC[C@]3(C)C4=CC=C5C(=CC(=O)C(=O)[C@@]5(C)OC)[C@]4(C)CC[C@@]3(C)[C@@H]2C1 [Compound A12, (2R,4aS,9S,6aS,12bR,14aS,14bR)—N-propyl-9-methoxy-2,4a,6a,9,12b,14a-hexamethyl-10,11-dioxo-1,2,3,4,4a,5,6,6a,9,10,11,12b,13,14,14a,14b-hexadecahydropicene-2-carboxamide]	30 to 50	≥ 80	50 to 80	50 to 80	≥ 80	≥ 80	≥ 80
CO[C@]1(C)C(=O)C(=O)C=C2C1=CC=C1[C@@]2(C)CC[C@@]2(C)[C@@H]3C[C@](C)(C(=O)N(C)C)CC[C@]3(C)CC[C@]12C [Compound A13, (2R,4aS,6aS,9S,12bR,14aS,14bR)-9-methoxy-N,N,2,4a,6a,9,12b,14a-octamethyl-10,11-dioxo-1,2,3,4,4a,5,6,6a,9,10,11,12b,13,14,14a,14b-hexadecahydropicene-2-carboxamide]	30 to 50	≥ 80	≥ 80	≥ 80	≥ 80	≥ 80	≥ 80
CO[C@]1(C)C(=O)C(=O)C=C2C1=CC=C1[C@@]2(C)CC[C@@]2(C)[C@@H]3C[C@](C)(CO)CC[C@]3(C)CC[C@]12C [Compound A14, (4S,6bS,8aS,11R,12aR,12bS,14aR)-11-(hydroxymethyl)-4-methoxy-4,6b,8a,11,12b,14a-hexamethyl-4,6b,7,8,8a,9,10,11,12,12a,12b,13,14,14a-tetradecahydropicene-2,3-dione]	< 30	< 30	< 30	< 30	< 30	30 to 50	< 30
